Measurements: patent US3983125A, “Thieno-pyridine derivatives, process for their preparation and their applications” (Parcor, priority 1974, dated 1976)

Experiments:
[1] = Ovalbumin-induced systemic edema method; type: in vivo; conditions: rat, 100 mg/kg orally, one hour prior to and simultaneously with ovalbumin; for Percent decrease (edematous reaction) after two hours: 2 hours; for Percent decrease (edematous reaction) after three hours: 3 hours
Method: b. Ovalbumin-induced systemic edema method
Rats are administered a simultaneous intraperitoneal injection of 1 ml ovalbumin and 0.5 ml of a 1% aqueous Evans Blue solution. On the other hand, the animals of the treated lot are administered orally 100 mg/kg of the test derivative, one hour prior to and simultaneously with the ovalbumin administration. The determinations are effected after 2 hours and after 3 hours. Thus are determined the average intensity of the edema and the percent decrease of the edematous reaction with respect to the controls.

[2] = Carrageenin-induced localized edema method; type: in vivo; conditions: rat, 100 mg/kg orally per administration; for Percent anti-inflammatory activity after 1 hour: 1 hour after carrageenin; for Percent anti-inflammatory activity after 2 hours: 2 hours after carrageenin; for Percent anti-inflammatory activity after 5 hours: 5 hours after carrageenin
Method: a. Carrageenin-induced localized edema method
A 1% carrageenin solution (0.1 ml) is injected in the metatarsal flexor muscles of the right posterior limb of a rat at time 0 (zero). The animals of the treated lot are additionally given orally 100 mg/kg of the respective test derivatives, one hour prior to and then simultaneously with the injection of the phlogogenic agent, and then one hour and 2.5 hours thereafter. The determinations effected by means of a ROCH micrometer at times 0, 1 hour, 2 hours, 3 hours and 5 hours after carrageenin administration, provide a measure of the percent anti-inflammatory activity, as a function of time.

[3] = Acute toxicity, LD50 oral route; conditions: mouse, in vivo, per kg body weight
Method: By the oral route, the LD50 /24 hrs/kg body weight is in excess of 300 mg with derivatives n°1 and n°2.

[4] = Acetic acid method (writhing), according to Koster, Anderson and de Beer; type: in vivo; conditions: mice, 100 mg/kg orally, 30 minutes prior to acetic acid i.p.; writhing within following 30 minutes
Source text: a. Acetic acid method, according to Koster, Anderson and de Beer (Fed. Proced., 18, 1959, 412, 1, 626).
Intraperitoneal injection of a dilute acetic acid solution produces, in mice, characteristic repeated writhing movements, under the influence of pain.

[5] = Mechanical stimulation method according to Haffner; type: in vivo; conditions: mouse, 100 mg/kg orally
Method: b. Mechanical stimulation method according to Haffner (Deutsch. Wisch., 1959, 55, 731-733)
This method comprises placing a forcipressure forceps at the base of the tail of a mouse and noting the number of self-inflicted bites due to the animal's efforts to remove the forceps. The decrease of the number of bites prior to and after oral administration of the test derivative, at a dosage of 100 mg/kg, provides a measure of the antalgic activity of the derivatives of this invention.

[6] = Acute toxicity, LD50 intravenous route, Miller and Tainter method; conditions: mouse, in vivo, mice, per kg body weight

| SMILES | Percent decrease (edematous reaction) after two hours [1] [%] | Percent decrease (edematous reaction) after three hours [1] [%] | Percent anti-inflammatory activity after 1 hour [2] [%] | Percent anti-inflammatory activity after 2 hours [2] [%] | Percent anti-inflammatory activity after 5 hours [2] [%] | LD50 at 24 h [3] [mg/kg] | Percent antalgic activity [4] [%] | Average percent antalgic activity after 30 min. [5] [%] | Average percent antalgic activity after 1 hr [5] [%] | Average percent antalgic activity after 2 hrs [5] [%] | Average percent antalgic activity after 3 hrs [5] [%] | LD50 at 24 h [6] [mg/kg] |
| --- | --- | --- | --- | --- | --- | --- | --- | --- | --- | --- | --- | --- |
| OC1CNCc2ccsc21 (centres unmarked) [Derivative 1, 7-hydroxy-4,5,6,7-tetrahydro-thieno[3,2-c]pyridine] | 54 | 58 | 41 | 48 | 53 | > 300 | 63 | 72 | 68 | 62 | 55 | 75 |
| OC1CNCc2sccc21 (centres unmarked) [Derivative 2, 4-hydroxy-4,5,6,7-tetrahydro-thieno[2,3-c]pyridine] | 56 | 65 | 43 | 54 | 58 | > 300 | 66 | 76 | 69 | 60 | 54 | 68 |
| CC1NCC(O)c2ccsc21 (centres unmarked) [Derivative 3, 4-hydroxy-7-methyl-4,5,6,7-tetrahydro-thieno[2,3-c]pyridine] | 45 | 56 | 38 | 47 | 56 | – | 55 | 68 | 62 | 58 | 50 | 300 |
| CCC1NCC(O)c2ccsc21 (centres unmarked) [Derivative 4, 7-ethyl-4-hydroxy-4,5,6,7-tetrahydro-thieno[2,3-c]pyridine] | 54 | 62 | 43 | 51 | 59 | – | 61 | 74 | 65 | 60 | 52 | 285 |
| CC1NCC(O)c2sccc21 (centres unmarked) [Derivative 5, 7-hydroxy-4-methyl-4,5,6,7-tetrahydro-thieno[3,2-c]pyridine] | 52 | 64 | 41 | 55 | 60 | – | 59 | 76 | 64 | 61 | 52 | 155 |
| CCC1NCC(O)c2sccc21 (centres unmarked) [Derivative 6, 4-ethyl-7-hydroxy-4,5,6,7-tetrahydro-thieno[3,2-c]pyridine] | 49 | 64 | 39 | 51 | 57 | – | 58 | 71 | 67 | 63 | 58 | 210 |
